Legend:
[1] = tested on: brains, heart, liver, muscle, and DRG of the NHPs; experiment: Maturation of TTM-001 and TTM-002 capsids, NGS enrichment in NHP tissues; assay type: in vivo; settings: relative to AAV9 control
How it was run: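 Variants carry mutations within and flanking the loop IV peptide insert: positions 450–466 were triplet-randomized, while positions 449–466 received low-frequency point mutations. The combined pool went into two NHPs, and each peptide was scored by NGS enrichment ratio against AAV9.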

[2] = tested on: brain; experiment: Matured TTM-001 and TTM-002 variants, NGS enrichment in mouse brain; assay type: in vivo, mice; settings: relative to AAV9 control
[3] = NGS fold-enrichment of RNA, NHP brain
[4] = NGS fold-enrichment, NHP liver DNA
[5] = NGS fold-enrichment, NHP liver RNA
[6] = NGS fold-enrichment, NHP muscle
[7] = NGS fold-enrichment, mouse brain
[8] = NGS fold-enrichment, DRG of NHPs
[9] = NGS fold-enrichment, RNA, brain of NHPs
[10] = NGS fold-enrichment, heart of NHPs
[11] = NGS fold-enrichment, liver DNA of NHPs
[12] = NGS fold-enrichment, liver RNA of NHPs
[13] = NGS fold-enrichment, muscle of NHPs
[14] = NGS fold-enrichment, brain of mice
[15] = NGS fold-enrichment of matured AAV capsid variants, NHP brain, RNA

Sequence	Fold Enrichment relative to AAV9, Brain (NHP) [1, 3] [fold]	Fold Enrichment relative to AAV9, DRG (NHP) ([1]; NGS fold-enrichment, NHP DRG) [fold]	Fold Enrichment relative to AAV9, Heart (NHP) ([1]; NGS fold-enrichment, NHP heart) [fold]	Fold Enrichment relative to AAV9, Liver DNA (NHP) [1, 4] [fold]	Fold Enrichment relative to AAV9, Liver RNA (NHP) [1, 5] [fold]	Fold Enrichment relative to AAV9, Muscle (NHP) [1, 6] [fold]	Fold Enrichment relative to AAV9, Brain (Mouse) [2, 7] [fold]	Fold Enrichment relative to AAV9, DRG (NHP) [1, 8] [fold]	Fold Enrichment relative to AAV9, Brain (NHP) [1, 9] [fold]	Fold Enrichment relative to AAV9, Heart (NHP) [1, 10] [fold]	Fold Enrichment relative to AAV9, Liver DNA (NHP) [1, 11] [fold]	Fold Enrichment relative to AAV9, Liver RNA (NHP) [1, 12] [fold]	Fold Enrichment relative to AAV9, Muscle (NHP) [1, 13] [fold]	Fold Enrichment relative to AAV9, Brain (Mouse) [2, 14] [fold]	Fold Enrichment relative to AAV9, Brain (NHP) [1, 15] [fold]	Fold Enrichment relative to AAV9, DRG (NHP) ([1]; NHP DRG) [fold]	Fold Enrichment relative to AAV9, Heart (NHP) ([1]; NHP heart) [fold]	Fold Enrichment relative to AAV9, Liver DNA (NHP) ([1]; NHP liver, DNA) [fold]	Fold Enrichment relative to AAV9, Liver RNA (NHP) ([1]; NHP liver, RNA) [fold]	Fold Enrichment relative to AAV9, Muscle (NHP) ([1]; NHP muscle) [fold]	other results
KTCNGHDSPHKSGRNQQT	94.616	0.000	0.025	0.128	0.000	0.000	12.496	–	–	–	–	–	–	–	–	–	–	–	–	–	–
KTCNKSGSPHSKAQNQQT	83.992	0.000	0.000	0.000	0.283	0.165	119.496	0.000	83.992	0.000	0.000	0.283	0.165	119.496	–	–	–	–	–	–	–
KTDAGHDSPHKSGQNQQT	88.924	0.000	0.013	0.070	1.076	0.000	18.107	–	–	–	–	–	–	–	–	–	–	–	–	–	–
KTDKGSGSPHSKAQNQQT	94.572	0.000	0.037	0.367	0.951	0.000	47.888	–	–	–	–	–	–	–	–	–	–	–	–	–	–
KTDKMSGSPHSKAQNQQT	–	–	–	–	–	–	–	0.000	68.167	0.000	0.205	0.017	0.000	88.234	–	–	–	–	–	–	–
KTDKNSGSPHSKAQNQQT	–	–	–	–	–	–	–	0.000	70.964	0.000	0.123	0.070	0.000	62.932	–	–	–	–	–	–	–
KTDKSSGSPHSKAQNQQT	79.470	0.055	0.012	0.367	1.437	0.000	141.351	0.055	79.470	0.012	0.367	1.437	0.000	141.351	–	–	–	–	–	–	–
KTDKTSGSPHSKAQNQQT	81.430	0.000	0.000	0.291	1.362	0.000	169.515	0.000	81.430	0.000	0.291	1.362	0.000	169.515	–	–	–	–	–	–	–
KTDKVSGSPHSKAQNQQT	–	–	–	–	–	–	–	0.000	60.935	0.015	0.128	0.765	0.000	146.657	–	–	–	–	–	–	–
KTDLKSGSPHSKAQNQQT	–	–	–	–	–	–	–	0.000	63.152	0.000	0.377	0.285	0.012	62.687	–	–	–	–	–	–	–
KTDNGHDSPHKSRQNQQT	105.312	0.000	0.033	0.018	0.000	0.000	7.931	–	–	–	–	–	–	–	–	–	–	–	–	–	–
KTDNGSGSPHSKAHNQQT	95.164	0.000	0.000	0.027	0.000	0.000	55.313	0.000	95.164	0.000	0.027	0.000	0.000	55.313	–	–	–	–	–	–	–
KTDRGSGSPHSKAQNQQT	–	–	–	–	–	–	–	0.000	61.419	0.004	0.316	0.211	0.000	74.256	–	–	–	–	–	–	–
KTDRMSGSPHSKAQNQQT	–	–	–	–	–	–	–	0.000	65.143	0.000	0.103	0.332	0.000	104.890	–	–	–	–	–	–	–
KTDRNSGSPHSKAQNQQT	–	–	–	–	–	–	–	–	–	–	–	–	–	–	54.495	0.000	0.000	0.241	0.823	0.000	Fold Enrichment relative to AAV9, Brain (Mouse) ([2]; mouse brain): 85.823 fold
KTDRSSGSPHSKAQNQQT	–	–	–	–	–	–	–	–	–	–	–	–	–	–	52.737	0.000	0.000	0.085	0.995	0.000	Fold Enrichment relative to AAV9, Brain (Mouse) ([2]; mouse brain): 123.421 fold
KTDRTSGSPHSKAQNQQT	–	–	–	–	–	–	–	–	–	–	–	–	–	–	56.466	0.000	0.000	0.160	0.062	0.000	Fold Enrichment relative to AAV9, Brain (Mouse) ([2]; mouse brain): 148.498 fold
KTDVGSGSPHSKAQNQQT	–	–	–	–	–	–	–	–	–	–	–	–	–	–	51.849	0.000	0.007	0.560	0.385	0.000	Fold Enrichment relative to AAV9, Brain (Mouse) ([2]; mouse brain): 115.774 fold
KTDVKSGSPHSKAQNQQT	–	–	–	–	–	–	–	–	–	–	–	–	–	–	51.296	0.000	0.000	0.224	0.515	0.000	Fold Enrichment relative to AAV9, Brain (Mouse) ([2]; mouse brain): 53.601 fold
KTDVNSGSPHSKAQNQQT	–	–	–	–	–	–	–	–	–	–	–	–	–	–	57.593	0.000	0.000	0.331	0.000	0.000	Fold Enrichment relative to AAV9, Brain (Mouse) ([2]; mouse brain): 66.127 fold
